Common to all, as to type: cell-based, Chinese hamster
Test [1] concerns fluorescent reporter gene DsRed under the control of an EASE/CMV promoter in CHO cells. Briefly: DsRed fluorescent reporter induction in CHO cell pools, 96 well format. As to conditions: for increase in DsRed expression per viable cell relative to control: 96 well, 6 days at 31° C.; for effectiveness as inducers of recombinant polypeptide production: compound screening, conditions not given. As for the experimental part: FIG. 1 is a graph of the Effect of Combinations of Compounds on Induction of Reporter Gene. Pools of cells that expressed a fluorescent marker protein, DsRed, under the control of an EASE/CMV promoter were cultured in 96 well plates at 35° C. for 6 days in the presence of the indicated amount of compound. The amount of fluorescence is plotted as a function of the concentration of compound. Compounds used for induction were hexanohydroxamic acid (HHA) (diamonds), Hexamethylenebisacetamide (HMBA) (squares) and both HHA+HMBA (triangles).
Using a construct that expressed DsRed under the control of a EASE/CMV promoter, including an adenoviral tripartite leader, as an indicator for expression, various compounds were assayed.
Pools of cells were selected in -GHT medium for presence of the expression vector, and then plated in a 96 well format in serum-free medium. Hydrocinnamic acid was added to test wells at 0.5 millimolar, the temperature decreased from 37° C. to 31° C., and culture continued for 6 days at the reduce temperature. DsRed fluorescence was assayed on a Wallac Victor2 multilabel microplate reader (PerkinElmer Life Sciences, Boston, Mass.).

For test [2], the system named is CHO cell line that expresses a soluble form of the IL1-receptor type II. Briefly: IL1RII expression by CHO cell line in shake flasks. As for the experimental part: The induction capacity of this compound was then tested in a different format on a different recombinant protein. […] Cells were grown in serum-free medium in shake flasks, hydrocinnamic acid was added to a concentration of 0.5 millimolar, and incubation continued at 31° C. for 9 to 10 days.

For test [3], the system named is CHO cell pools transfected with an expression vector encoding an antibody against the IL4 receptor. The experiment in a line: Antibody expression by unamplified CHO cell pools, 96 well plates. As to conditions: for increase in antibody expression relative to control, compound used individually: single compound (HHA 10 micromolar, 3-phenylpropionohydroxamic acid 10 micromolar, HMBA 1 millimolar as in the combinations); for increase in antibody expression relative to control, compound used individually / increase in antibody expression relative to control: 4 days at 37° C.; for increase in antibody expression relative to control: 0.5 mM inducer (per example heading), average over experiments. The method, then: In addition, CHO cell pools transfected with an expression vector encoding an antibody against the IL4 receptor were tested (see U.S. Pat. No. 5,717,072, incorporated by reference herein). Unamplified pools were plated in serum-free medium in 96 well plates and incubated with inducer for 4 days at 37° C.

The subject of test [4] is CHO cell that expresses a soluble form of a TNF receptor, TNFR:Fc. Briefly: TNFR:Fc expression by CHO cells in shake flasks. As to conditions: 7 days at a reduced temperature. From the text:
Another cell line tested was a CHO cell that expresses a soluble form of a TNF receptor, TNFR:Fc (U.S. Pat. No. 5,605,690, incorporated by reference herein). […]

Test [5] relates to fluorescent reporter gene DsRed under the control of an EASE/CMV promoter in CHO cells. Briefly: DsRed fluorescent reporter induction in CHO cell pools, 96 well format. As to conditions: 6 days at 31° C.
The mark [6] stands for this setting: 0.5 mM compound, average over experiments.
Where [7] appears, read: 0.5 millimolar compound, serum-free medium, 31° C. for 9 to 10 days.
Setting [8] is: 0.5 mM compound, serum-free medium.

SMILES strings stand for the structures.

For the molecule `Cc1ccc(CCC(=O)O)cc1` [3-(4-methylphenyl)propionic acid], the “increase in DsRed expression per viable cell relative to control” value in test [1] (setting [6]) came out at 70%. In addition, the “increase in IL1RII expression relative to control” value in test [2] (setting [7]) was determined as 15%.

For `O=C(CCc1ccccc1)NO` [3-phenylpropionohydroxamic acid], the “increase in antibody expression relative to control, compound used individually” value in test [3] was “not a significant increase”.

In the case of `O=C(O)CCCc1ccccc1` [4-phenylbutyric acid], the “increase in DsRed expression per viable cell relative to control” value in test [1] (setting [6]) came to 60%. For the same molecule, the “increase in IL1RII expression relative to control” value in test [2] (setting [7]) is recorded as 21%.

Take `O=C(O)CCCCc1ccccc1` [5-phenylvaleric acid]: the “increase in DsRed expression per viable cell relative to control” value in test [1] (setting [6]) came out at 40%. Moreover, the “increase in IL1RII expression relative to control” value in test [2] (setting [7]) came to 44%. In addition, in test [4] (setting [8]), the “increase in TNFR:Fc expression relative to control cells” value came out at 33%. Moreover, in test [3] (0.5 mM 5-phenylvaleric acid, 37° C., day 3), the “increase in antibody expression on day 3” value is given as “no increase”. Besides, the “increase in antibody expression relative to control” value in test [3] turned out to be 40%.

With `CCCCCC(=O)NO` [HHA, hexanohydroxamic acid], the “increase in IL1RII expression relative to control” value in test [2] (10 micromolar HHA, 31° C. for 9 days) was determined as 19%. The “increase in TNFR:Fc expression relative to control cells” value in test [4] (10 micromolar HHA) was 19%; in test [4] (20 micromolar HHA), 11%. The “increase in antibody expression relative to control, compound used individually” value in test [3] was “did not have a significant increase”. Moreover, in test [5] (10 micromolar HHA alone), the “increase in DsRed expression relative to the control” value was found to be 48%.

For `CC(=O)NCCCCCCNC(C)=O` [HMBA, hexamethylene bisacetamide, reference compound], in test [4] (1.0 millimolar HMBA alone), the “increase in TNFR:Fc expression relative to control cells” value was found to be 14%. Moreover, in test [3], the “increase in antibody expression relative to control, compound used individually” value is reported as “not a significant increase”. For the same molecule, the “increase in DsRed expression relative to the control” value in test [5] (1 millimolar HMBA alone) stood at 20%.

With `CCCCNC(C)=O` [N-butylacetamide], in test [1] (1.0 millimolar compound, average of 2 experiments), the “increase in DsRed expression per viable cell relative to control” value amounted to 77%.

For the molecule `O=C(O)CCc1ccccc1` [hydrocinnamic acid], in test [1] (setting [6]), the “increase in DsRed expression per viable cell relative to control” value came out at 60%. In test [2] (setting [7]), the “increase in IL1RII expression relative to control” value is 22%. Also, in test [4] (setting [8]), the “increase in TNFR:Fc expression relative to control cells” value is recorded as 20%. For the same molecule, in test [3], the “increase in antibody expression relative to control” value is reported as 5%.

In the case of `CC(CC(=O)O)C(=O)O` (centres unmarked) [methylsuccinic acid, reference compound], the “effectiveness as inducers of recombinant polypeptide production” value (shortened to “effectiveness as inducers”) in test [1] is “ineffective”.

Regarding `O=C(O)CCCCCC(=O)O` [pimelic acid, reference compound], in test [1], the “effectiveness as inducers” value is listed as “ineffective”.

Consider `O=C(O)CC(O)(CC(=O)O)C(=O)[O-].[Na+]` [sodium dihydrogen citrate, reference compound], for which the “effectiveness as inducers” value in test [1] was “ineffective”.

The values are drawn from patent US20040265964A1, “Inducers of recombinant protein expression” (priority 2003, published 2004).
